Reference: patent US20260327216A1, “SUBSTITUTED OXAZOLONE COMPOUND FOR DECREASING LEVELS OF IKZF I-4 PROTEINS” (BRISTOL-MYERS SQUIBB COMPANY, priority 2023, published 2026)

Assays:
[1] = target: IKZF1 Ikaros (Homo sapiens, UniProt Q13422+Q96SW2); experiment: Jurkat Cellular Degradation Assay, IKZF1; assay type: cell-based; parameters: endogenous in cells; settings: Jurkat cells, 72 h; for Dmax: human, 100% = complete degradation, 0% = no detectable degradation, read-out: IKZF1 Ikaros max % deg. observed
Sequence of IKZF1 Ikaros (Q13422 whole entry): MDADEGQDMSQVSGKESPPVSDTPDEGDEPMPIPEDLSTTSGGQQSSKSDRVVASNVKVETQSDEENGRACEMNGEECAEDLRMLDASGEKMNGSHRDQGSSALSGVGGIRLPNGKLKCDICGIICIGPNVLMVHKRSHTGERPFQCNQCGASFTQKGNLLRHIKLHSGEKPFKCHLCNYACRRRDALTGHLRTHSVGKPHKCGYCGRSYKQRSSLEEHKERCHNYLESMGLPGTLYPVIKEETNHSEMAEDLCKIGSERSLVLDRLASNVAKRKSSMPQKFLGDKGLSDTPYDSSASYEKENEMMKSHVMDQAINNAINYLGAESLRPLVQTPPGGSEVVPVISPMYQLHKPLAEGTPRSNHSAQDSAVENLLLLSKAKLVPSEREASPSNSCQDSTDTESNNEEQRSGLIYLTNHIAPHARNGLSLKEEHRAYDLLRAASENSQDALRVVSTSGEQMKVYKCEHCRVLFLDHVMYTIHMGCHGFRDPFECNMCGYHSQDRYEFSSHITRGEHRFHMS
Sequence of IKZF1 Ikaros (Q96SW2 whole entry): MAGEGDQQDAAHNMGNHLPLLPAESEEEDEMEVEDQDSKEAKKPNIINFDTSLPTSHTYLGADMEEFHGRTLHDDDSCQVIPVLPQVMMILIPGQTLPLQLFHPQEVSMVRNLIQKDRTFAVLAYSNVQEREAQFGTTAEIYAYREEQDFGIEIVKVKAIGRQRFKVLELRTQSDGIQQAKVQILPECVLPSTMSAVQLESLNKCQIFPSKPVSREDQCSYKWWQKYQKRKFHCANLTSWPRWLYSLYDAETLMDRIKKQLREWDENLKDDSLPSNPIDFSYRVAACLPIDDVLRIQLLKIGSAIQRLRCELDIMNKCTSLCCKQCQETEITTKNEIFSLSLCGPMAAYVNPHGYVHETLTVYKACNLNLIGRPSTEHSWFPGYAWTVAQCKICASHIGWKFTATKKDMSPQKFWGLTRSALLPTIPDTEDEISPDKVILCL
Sequence of IKZF1 Ikaros (Q16531 whole entry partner): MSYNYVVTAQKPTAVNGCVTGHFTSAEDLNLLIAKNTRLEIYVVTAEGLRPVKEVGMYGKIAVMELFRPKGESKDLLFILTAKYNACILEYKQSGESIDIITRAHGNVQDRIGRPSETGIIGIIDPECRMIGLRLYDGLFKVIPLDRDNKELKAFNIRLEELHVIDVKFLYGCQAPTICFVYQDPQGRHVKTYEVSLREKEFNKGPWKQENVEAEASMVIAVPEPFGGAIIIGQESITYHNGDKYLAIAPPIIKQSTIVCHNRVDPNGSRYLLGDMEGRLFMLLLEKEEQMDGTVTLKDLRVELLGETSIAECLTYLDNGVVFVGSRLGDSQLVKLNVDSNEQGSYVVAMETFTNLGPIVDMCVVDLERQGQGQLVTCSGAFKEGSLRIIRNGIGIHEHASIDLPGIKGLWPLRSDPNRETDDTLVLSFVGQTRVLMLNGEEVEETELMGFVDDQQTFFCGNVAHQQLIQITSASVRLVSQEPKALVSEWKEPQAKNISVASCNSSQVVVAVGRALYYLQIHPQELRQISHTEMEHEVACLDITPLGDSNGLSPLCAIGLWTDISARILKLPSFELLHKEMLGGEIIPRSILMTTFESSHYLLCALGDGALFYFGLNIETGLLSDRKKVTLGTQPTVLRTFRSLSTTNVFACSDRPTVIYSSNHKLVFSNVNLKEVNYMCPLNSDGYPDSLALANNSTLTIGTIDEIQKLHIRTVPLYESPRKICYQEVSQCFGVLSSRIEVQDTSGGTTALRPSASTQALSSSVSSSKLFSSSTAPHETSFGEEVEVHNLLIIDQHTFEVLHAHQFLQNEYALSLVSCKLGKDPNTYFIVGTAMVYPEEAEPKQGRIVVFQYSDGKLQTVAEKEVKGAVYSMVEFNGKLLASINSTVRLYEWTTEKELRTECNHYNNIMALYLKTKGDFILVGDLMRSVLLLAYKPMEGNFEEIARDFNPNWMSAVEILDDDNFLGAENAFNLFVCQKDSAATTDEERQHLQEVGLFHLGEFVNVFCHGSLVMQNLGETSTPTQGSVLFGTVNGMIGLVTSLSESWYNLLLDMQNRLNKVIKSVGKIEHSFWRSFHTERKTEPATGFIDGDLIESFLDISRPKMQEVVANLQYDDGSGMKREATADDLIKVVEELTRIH
Protocol: Jurkat cells were plated at 80,000 cells/well in 40 μL RPMI+10% FBS in a 384-well cell culture plate prior to using acoustic dispensing technology for adding a compound of interest. Cell cultures were incubated for 72 h at 37° C. and 5% CO2. In order to facilitate analysis, cell cultures were spun down at 200 rpm for 5 min and the supernatant was discarded. After shaking the plate to dislodge the cell pellet, cells were resuspended in 50 μL of Fixation Buffer (eBioscience FoxP3 buffer set 00-5523-00) for 60 min at room temperature. After centrifuging and discarding the supernatant, cells were permeabilized with 50 μL of Permeabilization buffer (eBioscience FoxP3 buffer set 00-5523-00) for 10 min at room temperature. Following permeabilization, cells were spun down and the supernatant was replaced with 20 μL fluorescently labelled antibodies against Helios, Ikaros and Aiolos or corresponding Isotype controls in 1× Permeabilization buffer (Ikaros-Alexa488 [Biolegend, Cat #368408, 1:50], Helios-PE [CST, Cat #29360, 1:50], Aiolos-Alexa647 [Biolegend, Cat #371106 Biolegend, 1:25]) and staining reactions were incubated for 1 h at room temperature while protected from light. Subsequently, 30 μL of 1× Permeabilization buffer was added prior to centrifuging the cells and discarding the supernatant. Stained cells were resuspended in 25 μL of flow cytometry staining buffer [PBS+0.2% bovine serum albumin (BSA)] and analyzed using an Intellicyt Ique Plus flow cytometer.
(§1) Table A-1 lists the maximum observed degradation of the IKZF1 protein, IKZF2 protein, and IKZF3 protein as measured in the Jurkat Cellular Degradation assay. The results in Table A-1 were rounded to two digits. In the Jurkat Cellular Degradation assay, a value of 100% indicated no detectable protein remaining or complete degradation of the protein; and a value of 0% indicated no detectable degradation of the protein by the test compound.

[2] = target: IKZF2 Helios (Homo sapiens, UniProt Q96SW2+Q9UKS7); experiment: Human Regulatory T Cell Reprogramming Assay, IKZF2; assay type: cell-based; parameters: endogenous in cells; host or cells: FACS-sorted human CD4+CD127lowCD25+ Treg cells from healthy leukopaks; settings: 12-13 days; for Dmax: Regulatory T cell, human, read-out: IKZF2 Helios max % deg. observed; for Dmax / IKZF2 Helios max % deg. observed: human CD4+CD127lowCD25+ Treg cells, stimulated, 100% = complete degradation
Sequence of IKZF2 Helios (Q9UKS7 whole entry): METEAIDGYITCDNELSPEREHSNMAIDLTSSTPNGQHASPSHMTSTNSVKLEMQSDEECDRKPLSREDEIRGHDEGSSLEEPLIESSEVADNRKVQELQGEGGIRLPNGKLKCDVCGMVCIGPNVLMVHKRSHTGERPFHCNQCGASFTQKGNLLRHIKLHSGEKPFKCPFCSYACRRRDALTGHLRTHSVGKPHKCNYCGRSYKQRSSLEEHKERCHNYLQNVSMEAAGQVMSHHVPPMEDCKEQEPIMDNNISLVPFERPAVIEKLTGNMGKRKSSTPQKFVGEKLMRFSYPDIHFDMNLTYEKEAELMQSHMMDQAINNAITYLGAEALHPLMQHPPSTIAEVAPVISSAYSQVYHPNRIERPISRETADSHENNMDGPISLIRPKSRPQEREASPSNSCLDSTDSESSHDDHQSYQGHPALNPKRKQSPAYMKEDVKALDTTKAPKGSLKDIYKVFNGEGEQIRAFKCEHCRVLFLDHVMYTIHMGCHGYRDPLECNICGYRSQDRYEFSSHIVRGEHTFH
Sequence of IKZF2 Helios (Q96SW2 whole entry): as the sequence (Q96SW2 whole entry) above
Sequence of IKZF2 Helios (Q16531 whole entry partner): as the sequence (Q16531 whole entry partner) above
Protocol: Human CD4^+ T cells were isolated from fresh healthy leukopaks (Stemcell Technologies) using the RosetteSep Human CD4^+ T cell enrichment cocktail (Stemcell Technologies) and Ficoll density gradient centrifugation. Leukopaks were diluted with an equal volume of phosphate-buffered saline (PBS [Gibco]) supplemented with 2% fetal bovine serum (FBS, VWR Lifescience) and incubated with RosetteSep Human CD4^+ T cell enrichment cocktail for 20 minutes before layering on Ficoll-Paque Plus solution (GE Health Care). The cell-rich interface layer was harvested and washed twice with PBS supplemented with 2% FBS. Regulatory T cells were then isolated manually using the EasySep Human CD4^+CD127^lowCD25^+ Regulatory T cell isolation kit (Stemcell Technologies) according to the manufacturer's instructions. Cells were rested overnight in Roswell Park Memorial Institute (RPMI) 1640 media (Gibco) supplemented with 10% FBS, Pen/Strep (Gibco), MEM-NEAA (Gibco), and sodium pyruvate (Gibco) in a humidified incubator (37° C., 5% CO2). Cells were then stained for CD4 (clone: RPA-T4, Biolegend), CD25 (clone: 2A3, BD Biosciences), and CD127 (clone: hIL-7R-M21, BD Biosciences). CD4^+CD127^lowCD25^+ cells were sorted on a BD FACS Aria Fusion sorter to a purity of 95% or greater. Sorted cells were immediately used or cryopreserved for downstream assays.
Fresh or cryopreserved FACS-sorted CD4^+CD127^lowCD25^+ Treg cells were cultured at 25,000-50,000 cells/well of 96-well round bottom plates in RPMI 1640 media (Gibco) supplemented with 10% FBS, Pen/Strep (Gibco), MEM-NEAA (Gibco), and sodium pyruvate (Gibco). Cells were stimulated with Treg Xpander beads (Thermo Fisher) at cells-to-beads ratio of 1:4 in the presence of 500 U/mL recombinant human IL-2 (Proleukin). Compounds were added at titrated doses and cells were incubated at 37°C., 5% CO2 for 12-13 days. Recombinant human IL-2 and compound were replenished every 2-3 days during the entire culture duration. On day 12 or 13, cells were restimulated with phorbol 12-myristate 13-acetate (PMA) and ionomycin in the presence of the protein transport inhibitors brefeldin A and monensin (eBioscience Cell Stimulation Cocktail plus protein transport inhibitors, 500×, Catalog number 00-4975-93) before proceeding with flow cytometry staining and analysis.
For flow cytometry staining, cells were washed twice with flow cytometry staining buffer (Thermo Fisher) and incubated in Human Tru-stain Fc block (Biolegend) for 10 minutes before adding eFluor780 viability dye (Thermo Fisher) and surface marker antibody cocktail for 30 minutes at 4° C. Cells were then fixed and permeabilized by incubation with FoxP3 transcription factor staining buffer (Thermo Fisher) for 30 minutes at 4° C. as per the kit manufacturer's instructions. Cells were washed twice with the Perm/Wash buffer supplied in the kit as per the manufacturer's instructions and incubated overnight at 4° C. with an intracellular antibody cocktail comprised of antibodies specific for the transcription factors shown in Table C. Cells were washed twice with Perm/Wash buffer and resuspended in flow cytometry staining buffer (Thermo Fisher) prior to acquisition. Sample acquisition and analysis was performed using a BD LSRFortessa (BD Biosciences) flow cytometer. Single stain controls for each fluorochrome were prepared using UltraComp eBead Compensation Beads (Thermo Fisher). Data were analyzed using FlowJo version 10 and GraphPad Prism Software.
as §1, with “C-1” for “A-1”, “the” for “the IKZF1 protein,”, “protein” for “protein,”, “IKZF4” for “IKZF3”, “Human Regulatory T Cell Reprogramming” for “Jurkat Cellular Degradation”

Row | Dmax [1] [%] | Dmax [2] [%] | IKZF2 Helios max % deg. observed [2] | DC50 ([1]; concentration reducing protein level by 50% vs DMSO) [nM] | DC50 ([2]; human Treg cells, concentration reducing protein level by 50% vs DMSO) [nM] | Compound
1 | 17 | ≤ 6 | 6% | – | – | O=C1CCC(n2cc(-c3ccc(Br)cc3F)oc2=O)C(=O)N1 (stereo not shown) [Comparative Compound B, 3-(5-(4-bromo-2-fluorophenyl)-2-oxooxazol-3(2H)-yl)piperidine-2,6-dione]
2 | 70 | 86 to 92 | 86-92% | 749 | 1.1 to 1.4 | Cc1cc(-c2ccc(-c3cn(C4CCC(=O)NC4=O)c(=O)o3)c(F)c2)nc(N)c1OC(F)F (stereo not shown) [Example 1, 3-(5-(4-(6-Amino-5-(difluoromethoxy)-4-methylpyridin-2-yl)-2-fluorophenyl)-2-oxooxazol-3(2H)-yl)piperidine-2,6-dione]
3 | 57 | – | 1% | – | – | O=C1CCC(n2cc(-c3ccccc3)oc2=O)C(=O)N1 (stereo not shown) [Comparative Compound A, 3-(2-oxo-5-phenyloxazol-3(2H)-yl)piperidine-2,6-dione]
